What was measured:
Test in all cases: B2 Post-Emergence Efficacy - Test 2
Assay type in all cases: in vivo
[1] = system: Alopecurus myosuroides (ALOMY); settings: 15 days after application, 0-100 scale
Method in brief: (§1)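 Sow in standard soil; grow 12 d under controlled conditions, 65% humidity, 16 h light, 24/18 °C or 20/16 °C. Spray with water-diluted IF50 formulation, 0.2% v/v Genapol X080. Water twice daily. Assess injury at 15 d (0–100).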

Beta vulgaris (BEAVA) = settings: 15 days after application, 0-100 scale
Method in brief: as §1

Bidens pilosa (BIDPI) = settings: 15 days after application, 0-100 scale
Method in brief: as §1

Brassica napus (BRSNN) = settings: 15 days after application, 0-100 scale
Method in brief: as §1

[2] = system: Chenopodium album (CHEAL); settings: 15 days after application, 0-100 scale
Method in brief: as §1

[3] = system: Digitaria sanguinalis (DIGSA); settings: 15 days after application, 0=no damage, 100=total kill
Method in brief: as §1

Eleisine indica (ELEIN) = settings: 15 days after application, 0=no damage, 100=total kill
Method in brief: as §1

Galium aparine (GALAP) = settings: 15 days after application, 0-100 scale
Method in brief: as §1

Lolium perenne (LOLPE) = settings: 15 days after application, 0-100 scale
Method in brief: as §1

[4] = system: Panicum miliaceum (PANMI); settings: 15 days after application, 0=no damage, 100=total kill
Method in brief: as §1

Poa annua (POAAN) = settings: 15 days after application, 0-100 scale
Method in brief: as §1

Sida spinosa (SIDSP) = settings: 15 days after application, 0-100 scale
Method in brief: as §1

Sorghum bicolour (SORVU) = settings: 15 days after application, 0=no damage, 100=total kill
Method in brief: as §1

Stellaria media (STEME) = settings: 15 days after application, 0-100 scale
Method in brief: as §1

[5] = system: Triticum aestivum (TRZAW); settings: 15 days after application, 0-100 scale
Method in brief: as §1

Veronica persica (VERPE) = settings: 15 days after application, 0-100 scale
Method in brief: as §1

[6] = system: Xanthium strumarium (XANST); settings: 15 days after application, 0-100 scale
Method in brief: as §1

Zea mays (ZEAMX) = settings: 15 days after application; for Herbicidal activity ZEAMX: 0-100 scale; for Herbicidal activity on a 0-100 scale, ZEAMX: 0=no damage, 100=total kill
Method in brief: as §1

Cc1nn(C)c(=O)c(-c2c(F)ccc(Cl)c2CCc2ccc(F)cc2)c1OC(=O)C(C)C [Compound 1.125, [5-[3-chloro-6-fluoro-2-[2-(4-fluorophenyl)ethyl]phenyl]-1,3-dimethyl-6-oxo-pyridazin-4-yl] 2-methylpropanoate]
90: Herbicidal activity BRSNN (Brassica napus (BRSNN); 125 g/Ha) | Herbicidal activity BRSNN (Brassica napus (BRSNN); 250 g/Ha) | Herbicidal activity BRSNN (Brassica napus (BRSNN); 500 g/Ha) | Herbicidal activity CHEAL ([2]; 15 g/Ha) | Herbicidal activity CHEAL ([2]; 30 g/Ha) | Herbicidal activity CHEAL ([2]; 60 g/Ha) | Herbicidal activity CHEAL ([2]; 125 g/Ha) | Herbicidal activity CHEAL ([2]; 250 g/Ha) | Herbicidal activity CHEAL ([2]; 500 g/Ha) | Herbicidal activity LOLPE (Lolium perenne (LOLPE); 500 g/Ha) | Herbicidal activity SIDSP (Sida spinosa (SIDSP); 125 g/Ha) | Herbicidal activity SIDSP (Sida spinosa (SIDSP); 250 g/Ha) | Herbicidal activity on a 0-100 scale, SORVU (Sorghum bicolour (SORVU); 500 g/Ha) | Herbicidal activity STEME (Stellaria media (STEME); 15 g/Ha) | Herbicidal activity STEME (Stellaria media (STEME); 30 g/Ha) | Herbicidal activity STEME (Stellaria media (STEME); 60 g/Ha) | Herbicidal activity STEME (Stellaria media (STEME); 125 g/Ha) | Herbicidal activity STEME (Stellaria media (STEME); 250 g/Ha) | Herbicidal activity STEME (Stellaria media (STEME); 500 g/Ha) | Herbicidal activity VERPE (Veronica persica (VERPE); 500 g/Ha) | Herbicidal activity XANST ([6]; 30 g/Ha) | Herbicidal activity XANST ([6]; 60 g/Ha) | Herbicidal activity XANST ([6]; 125 g/Ha) | Herbicidal activity XANST ([6]; 250 g/Ha)
40: Herbicidal activity ALOMY ([1]; 500 g/Ha) | Herbicidal activity on a 0-100 scale, ELEIN (Eleisine indica (ELEIN); 15 g/Ha) | Herbicidal activity on a 0-100 scale, ELEIN (Eleisine indica (ELEIN); 30 g/Ha) | Herbicidal activity GALAP (Galium aparine (GALAP); 250 g/Ha) | Herbicidal activity LOLPE (Lolium perenne (LOLPE); 15 g/Ha) | Herbicidal activity ZEAMX (Zea mays (ZEAMX); 250 g/Ha) | Herbicidal activity on a 0-100 scale, ZEAMX (Zea mays (ZEAMX); 250 g/Ha)
10: Herbicidal activity ALOMY ([1]; 15 g/Ha) | Herbicidal activity ALOMY ([1]; 30 g/Ha) | Herbicidal activity on a 0-100 scale, DIGSA ([3]; 125 g/Ha) | Herbicidal activity POAAN (Poa annua (POAAN); 30 g/Ha) | Herbicidal activity TRZAW ([5]; 30 g/Ha) | Herbicidal activity TRZAW ([5]; 60 g/Ha)
30: Herbicidal activity ALOMY ([1]; 60 g/Ha) | Herbicidal activity ALOMY ([1]; 125 g/Ha) | Herbicidal activity on a 0-100 scale, DIGSA ([3]; 250 g/Ha) | Herbicidal activity GALAP (Galium aparine (GALAP); 125 g/Ha) | Herbicidal activity on a 0-100 scale, PANMI ([4]; 30 g/Ha) | Herbicidal activity TRZAW ([5]; 250 g/Ha) | Herbicidal activity ZEAMX (Zea mays (ZEAMX); 60 g/Ha) | Herbicidal activity on a 0-100 scale, ZEAMX (Zea mays (ZEAMX); 60 g/Ha)
100: Herbicidal activity BIDPI (Bidens pilosa (BIDPI); 500 g/Ha) | Herbicidal activity SIDSP (Sida spinosa (SIDSP); 500 g/Ha) | Herbicidal activity XANST ([6]; 500 g/Ha)
0: Herbicidal activity on a 0-100 scale, DIGSA ([3]; 15 g/Ha) | Herbicidal activity on a 0-100 scale, DIGSA ([3]; 30 g/Ha) | Herbicidal activity on a 0-100 scale, DIGSA ([3]; 60 g/Ha) | Herbicidal activity POAAN (Poa annua (POAAN); 15 g/Ha) | Herbicidal activity on a 0-100 scale, SORVU (Sorghum bicolour (SORVU); 15 g/Ha) | Herbicidal activity TRZAW ([5]; 15 g/Ha) | Herbicidal activity ZEAMX (Zea mays (ZEAMX); 15 g/Ha) | Herbicidal activity on a 0-100 scale, ZEAMX (Zea mays (ZEAMX); 15 g/Ha)
20: Herbicidal activity GALAP (Galium aparine (GALAP); 30 g/Ha) | Herbicidal activity GALAP (Galium aparine (GALAP); 60 g/Ha) | Herbicidal activity on a 0-100 scale, PANMI ([4]; 15 g/Ha) | Herbicidal activity POAAN (Poa annua (POAAN); 60 g/Ha) | Herbicidal activity TRZAW ([5]; 125 g/Ha) | Herbicidal activity ZEAMX (Zea mays (ZEAMX); 30 g/Ha) | Herbicidal activity on a 0-100 scale, ZEAMX (Zea mays (ZEAMX); 30 g/Ha) | Herbicidal activity ZEAMX (Zea mays (ZEAMX); 125 g/Ha) | Herbicidal activity on a 0-100 scale, ZEAMX (Zea mays (ZEAMX); 125 g/Ha)
50: Herbicidal activity LOLPE (Lolium perenne (LOLPE); 30 g/Ha) | Herbicidal activity on a 0-100 scale, PANMI ([4]; 60 g/Ha) | Herbicidal activity on a 0-100 scale, PANMI ([4]; 125 g/Ha) | Herbicidal activity on a 0-100 scale, SORVU (Sorghum bicolour (SORVU); 30 g/Ha) | Herbicidal activity on a 0-100 scale, SORVU (Sorghum bicolour (SORVU); 60 g/Ha) | Herbicidal activity TRZAW ([5]; 500 g/Ha)
70: Herbicidal activity BEAVA (Beta vulgaris (BEAVA); 15 g/Ha) | Herbicidal activity BEAVA (Beta vulgaris (BEAVA); 125 g/Ha) | Herbicidal activity BEAVA (Beta vulgaris (BEAVA); 250 g/Ha) | Herbicidal activity BEAVA (Beta vulgaris (BEAVA); 500 g/Ha) | Herbicidal activity BIDPI (Bidens pilosa (BIDPI); 60 g/Ha) | Herbicidal activity BIDPI (Bidens pilosa (BIDPI); 125 g/Ha) | Herbicidal activity on a 0-100 scale, DIGSA ([3]; 500 g/Ha) | Herbicidal activity on a 0-100 scale, ELEIN (Eleisine indica (ELEIN); 60 g/Ha) | Herbicidal activity on a 0-100 scale, ELEIN (Eleisine indica (ELEIN); 125 g/Ha) | Herbicidal activity GALAP (Galium aparine (GALAP); 500 g/Ha) | Herbicidal activity LOLPE (Lolium perenne (LOLPE); 125 g/Ha) | Herbicidal activity on a 0-100 scale, PANMI ([4]; 250 g/Ha) | Herbicidal activity POAAN (Poa annua (POAAN); 250 g/Ha) | Herbicidal activity on a 0-100 scale, SORVU (Sorghum bicolour (SORVU); 125 g/Ha) | Herbicidal activity VERPE (Veronica persica (VERPE); 15 g/Ha) | Herbicidal activity VERPE (Veronica persica (VERPE); 30 g/Ha) | Herbicidal activity VERPE (Veronica persica (VERPE); 60 g/Ha) | Herbicidal activity ZEAMX (Zea mays (ZEAMX); 500 g/Ha) | Herbicidal activity on a 0-100 scale, ZEAMX (Zea mays (ZEAMX); 500 g/Ha)
80: Herbicidal activity BIDPI (Bidens pilosa (BIDPI); 250 g/Ha) | Herbicidal activity BRSNN (Brassica napus (BRSNN); 15 g/Ha) | Herbicidal activity BRSNN (Brassica napus (BRSNN); 30 g/Ha) | Herbicidal activity BRSNN (Brassica napus (BRSNN); 60 g/Ha) | Herbicidal activity on a 0-100 scale, ELEIN (Eleisine indica (ELEIN); 250 g/Ha) | Herbicidal activity on a 0-100 scale, ELEIN (Eleisine indica (ELEIN); 500 g/Ha) | Herbicidal activity LOLPE (Lolium perenne (LOLPE); 250 g/Ha) | Herbicidal activity on a 0-100 scale, PANMI ([4]; 500 g/Ha) | Herbicidal activity SIDSP (Sida spinosa (SIDSP); 60 g/Ha) | Herbicidal activity on a 0-100 scale, SORVU (Sorghum bicolour (SORVU); 250 g/Ha) | Herbicidal activity VERPE (Veronica persica (VERPE); 125 g/Ha) | Herbicidal activity VERPE (Veronica persica (VERPE); 250 g/Ha)
60: Herbicidal activity ALOMY ([1]; 250 g/Ha) | Herbicidal activity BEAVA (Beta vulgaris (BEAVA); 30 g/Ha) | Herbicidal activity BEAVA (Beta vulgaris (BEAVA); 60 g/Ha) | Herbicidal activity BIDPI (Bidens pilosa (BIDPI); 15 g/Ha) | Herbicidal activity BIDPI (Bidens pilosa (BIDPI); 30 g/Ha) | Herbicidal activity LOLPE (Lolium perenne (LOLPE); 60 g/Ha) | Herbicidal activity POAAN (Poa annua (POAAN); 125 g/Ha) | Herbicidal activity POAAN (Poa annua (POAAN); 500 g/Ha)

Reference: patent US20230301300A1, “HERBICIDAL COMPOSITIONS” (SYNGENTA CROP PROTECTION AG, priority 2020, published 2023)
